One data set addresses S1P5 receptors (Homo sapiens, UniProt Q9H228). The settings on record: at concentrations up to 10 μM; cited from earlier work.
A further data set addresses T1, S1P4 (Homo sapiens, UniProt O95977).
T1 sequence (O95977 1-384): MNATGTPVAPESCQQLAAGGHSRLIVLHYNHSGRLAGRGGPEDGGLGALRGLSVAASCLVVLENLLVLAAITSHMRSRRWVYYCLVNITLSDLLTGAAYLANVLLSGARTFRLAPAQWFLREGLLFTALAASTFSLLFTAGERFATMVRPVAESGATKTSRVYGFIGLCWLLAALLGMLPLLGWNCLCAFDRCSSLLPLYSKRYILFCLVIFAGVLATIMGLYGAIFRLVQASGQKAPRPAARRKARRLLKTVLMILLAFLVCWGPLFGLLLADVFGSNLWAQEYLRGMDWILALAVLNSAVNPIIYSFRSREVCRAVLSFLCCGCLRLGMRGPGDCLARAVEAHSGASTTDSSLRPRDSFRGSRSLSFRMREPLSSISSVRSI
To be noted: at concentrations up to 10 μM; cited from earlier work.

In data set [1] the target is T2, S1P3 (Homo sapiens, UniProt Q99500). The settings on record: at concentrations up to 10 μM; cited from earlier work.
T2 sequence (Q99500 whole entry, species assumed): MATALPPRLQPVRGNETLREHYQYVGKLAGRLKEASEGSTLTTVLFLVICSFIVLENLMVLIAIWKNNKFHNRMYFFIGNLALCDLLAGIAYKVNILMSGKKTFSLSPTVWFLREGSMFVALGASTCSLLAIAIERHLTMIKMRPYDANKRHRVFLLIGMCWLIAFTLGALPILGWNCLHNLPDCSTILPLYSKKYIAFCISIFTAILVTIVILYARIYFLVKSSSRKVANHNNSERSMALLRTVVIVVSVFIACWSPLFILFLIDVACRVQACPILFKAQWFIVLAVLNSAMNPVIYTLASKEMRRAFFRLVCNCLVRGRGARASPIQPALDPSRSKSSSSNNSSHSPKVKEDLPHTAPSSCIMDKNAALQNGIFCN
Another data set deals with S1P2 (Homo sapiens, UniProt O95136). The settings on record: at concentrations up to 10 μM; cited from earlier work.
Chain of S1P2 (O95136 whole entry, species assumed): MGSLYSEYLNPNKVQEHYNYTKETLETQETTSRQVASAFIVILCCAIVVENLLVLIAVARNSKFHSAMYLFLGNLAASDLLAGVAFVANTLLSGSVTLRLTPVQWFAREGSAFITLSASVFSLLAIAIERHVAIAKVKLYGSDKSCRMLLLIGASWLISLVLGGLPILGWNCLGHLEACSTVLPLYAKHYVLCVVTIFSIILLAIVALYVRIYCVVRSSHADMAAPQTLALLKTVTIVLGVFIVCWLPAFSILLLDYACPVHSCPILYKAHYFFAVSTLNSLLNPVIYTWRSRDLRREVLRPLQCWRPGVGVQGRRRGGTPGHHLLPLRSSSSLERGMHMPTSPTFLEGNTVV
The subject of a further data set is Renca-Her2/neu tumor. The experiment in a line: Survival of Renca-Her2/neu tumor bearing mice after irradiation and T-body transfer (Example 10). The format is in vivo, Balb/c mice. On the procedure: Adoptive transfer experiments. Mice were injected with […] Renca-Her2/neu cells iv on day 1. All mice (including the control group) were irradiated on day 7 with 200 or 400 rads (137Cs source). Prior to transfer, all T cells were activated with Con-A 1 μg/ml for 48 hours, and then cultured for 3-5 more days with 350 u/ml IL-2. Either 30×10^6 or 108 T cells were transferred in a split dose on days 8 and 10. In some experiments, FTY720 was injected ip (0.3 mg/kg) on days 8-18. Donor cells were either from wildtype mice (Balb/c or C57BL/6) or from N29 CAR transgenic mice (Balb/c or C57BL/6 backgrounds). In some cases, T-bodies from wild type mice (Balb/c or C57Bl) were transduced with the CAR.
To investigate the potential of allogeneic adoptive cell therapy, the BALB/c derived mouse renal cell carcinoma (Renca) cell line expressing the human Her2/neu was used. Following intravenous inoculation of the tumor, experimental metastases mainly developed in the lungs, yet, as was reported in similar systems (ref. 62, 63) extra-pulmonary metastases also developed. […] Adoptive transfer of T cells redirected with a Her2/neu-specific chimeric antigen receptor (‘T-bodies’) was performed on days 8 and 10 (FIG. 21). The CAR is composed of a scFv fragment derived from the Her2/Neu-specific N29 antibody fused to a CD28 co-activation moiety and FcRγ signaling sequences (ref. 8). […] T-bodies were obtained from transgenic (Tg) mice of BALB/c (Balb-N29) or C57BL/6 (Black-N29) background, or by the transduction of wild type T cells with a retrovector harboring the Her2/neu-specific CAR. Transduced T cells were activated as part of their transduction, while naïve transgenic (Tg) T cells were also activated to facilitate comparison with transduced T cells.

The test system of data set [2] is Renca-erbb2 pulmonary metastases.
Experimental: After determining safe regimens for adoptive transfer, the inventors tested the efficacy of tumor rejection by CR redirected T cells. The inventors used the Renca-erbb2, renal cancer cell line, stably transfected with erbB2 (HER2) which was injected intravenously into Balb/c mice to generate experimental pulmonary metastases. As effectors, the inventors used splenocytes from transgenic mice expressing a HER2 specific chimeric receptor (based on the N29 antibody derived scFv, FIGS. 7A-B) under the CD2 promoter (which is expressed in T and NK cells [8]). The HER2-specific transgenic mice were kept on two backgrounds: C57Bl and Balb/c (named C57Bl-N29 and Balb-N29 respectively). Wild type Balb/c mice were injected with the Renca-erbb2 on day 1, irradiated on day 7, and HER2 specific T-bodies were injected on day 8 (and also on day 10 and 12 in some cases).
The inventors therefore compared the efficacy of allogeneic (C57Bl-N29) to syngeneic (Balb-N29) T-bodies, and to ensure that allogeneic cells mediate a specific antitumor response (and not just an allogeneic response), they also tested the effect of activated wild type C57Bl cells. Previous experiments in the inventors' lab have established that the minimal regimen which provides significant therapeutic benefit (boosting median survival to 90 days) using syngeneic Balb-N29 is irradiation with 200 rad and transfer of 3 doses of 10 million cells each (abbreviated as 200/30 regimen) complemented with low dose IL-2 (1000 u) twice daily. The purpose was to test if one can provide therapeutic benefit in this model using allogeneic C57Bl-N29 cells. The inventors used the initial regimen as a starting point with one important difference: instead of using naïve transgenic cells, the cells were pre-activated before transfer for 48 hours with concanavalin A. The reason for the change was to simulate a more clinically relevant situation in which lymphocytes will need to be activated in order to facilitate retroviral transduction with the chimeric receptor.
A short description of data set [3]: FACS analysis of blood and spleen lymphocytes after transfer of allogeneic T-bodies with or without FTY720. It is filed as in vivo, Balb/c mice. How it is done: Prior to splenocyte staining, RBC were lysed using ACK buffer. Lymphocytes (1×10^6) were incubated with the appropriate antibodies in staining buffer (5% BSA, 0.05% sodium azide in phosphate-buffered saline (PBS)) for 30 minutes on ice. Alternatively, Annexin V staining buffer was used as indicated. CFSE (Carboxyfluorescein succinimidyl ester) labeling was performed according to the manufacturer's instructions (Molecular Probes. Eugene, Oreg.). Cells were analyzed by flow cytometry (LSRII, Becton Dickinson. Mountain View. Calif.) and FacsDiva software (Becton Dickinson).
This enhanced persistence of allogeneic T-bodies can explain the increased survival of tumor bearing mice treated with allogeneic T-bodies and FTY720.
A general note: A flow cytometer gives signals particle by particle.

Data set [4] addresses T2, S1P3. To be noted: read-out: ED50 (the source's name); cited from earlier work.
The next data set has as its target S1P1 (Homo sapiens, UniProt P21453). To be noted: high affinity for S1P1; cited from earlier work.
The conditions of data set [5]: in vivo; cited from earlier work.
Where [6] appears, read: 400 rads and 10^8 allo-T-bodies with FTY720.

Chain of S1P5 receptors (Q9H228 whole entry): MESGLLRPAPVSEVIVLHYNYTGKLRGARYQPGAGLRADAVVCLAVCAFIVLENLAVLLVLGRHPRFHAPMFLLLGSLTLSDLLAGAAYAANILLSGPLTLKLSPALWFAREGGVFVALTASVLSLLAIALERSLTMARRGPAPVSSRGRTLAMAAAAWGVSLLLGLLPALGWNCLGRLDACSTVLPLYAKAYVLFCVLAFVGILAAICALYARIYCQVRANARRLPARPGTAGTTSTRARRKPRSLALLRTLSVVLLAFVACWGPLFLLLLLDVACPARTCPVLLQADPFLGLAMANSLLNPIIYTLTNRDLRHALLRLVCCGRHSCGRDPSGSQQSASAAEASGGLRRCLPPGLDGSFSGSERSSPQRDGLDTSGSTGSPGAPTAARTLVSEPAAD
Chain of S1P1 (P21453 whole entry): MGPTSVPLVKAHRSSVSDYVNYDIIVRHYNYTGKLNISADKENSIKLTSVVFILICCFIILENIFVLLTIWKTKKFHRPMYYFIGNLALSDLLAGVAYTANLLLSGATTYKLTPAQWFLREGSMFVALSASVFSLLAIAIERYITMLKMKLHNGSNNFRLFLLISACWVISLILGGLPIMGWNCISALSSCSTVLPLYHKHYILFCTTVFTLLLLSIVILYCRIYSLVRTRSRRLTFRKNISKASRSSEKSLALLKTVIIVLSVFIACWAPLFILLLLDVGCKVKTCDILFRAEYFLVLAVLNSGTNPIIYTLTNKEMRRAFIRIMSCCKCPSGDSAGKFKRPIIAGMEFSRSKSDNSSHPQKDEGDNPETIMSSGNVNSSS

Regarding `FC(F)(F)c1cccc(-c2noc(-c3cc(-c4ccccc4)c(C(F)(F)F)s3)n2)c1` [SEW2871, 5-[4-Phenyl-5-(trifluoromethyl)thiophen-2-yl]-3-[3-(trifluoromethyl)phenyl]1,2,4-oxadiazole], the receptor activation entry at S1P5 receptors, on S1P4, at S1P3 [1] and at S1P2 was “does not activate” in each case.
Consider `CCCCCCCCc1ccc(CCC(N)(CO)CO)cc1.Cl` [FTY720, 2-amino-2-[2-(4-octylphenyl)ethyl]propane-1,3-diol], for which, in the data set on Renca-Her2/neu tumor (0.3 mg/kg i.p for the first 10 days after irradiation, no T-bodies), the “effect of FTY720 alone on survival of tumor bearing mice” value is on record as “not to affect the survival of tumor bearing mice”. In the data set on Renca-Her2/neu tumor (setting [6]), the “long term survival (>350 days)” value was “most of the remaining mice survived long term” and the “mice died of GvHD” value is 16%. Besides, in the data set on Renca-Her2/neu tumor (400 rads and 30x10^6 allogeneic T-bodies with FTY720 0.3 mg/kg ip 10 days), the “mice surviving long term (>350 days)” value was determined as 58%. Also, the median survival in the data set with Renca-Her2/neu tumor (400 rads and 30x10^6 syngeneic T-bodies with FTY720 0.3 mg/kg ip 10 days) was found to be 90 days. Also, the long term survivors in [2] (200/100 regimen, C57Bl-N29 with FTY720) was found to be 80%. Further, in [2] (400/30 regimen, C57Bl-N29 with FTY720), the “surviving after day 250” value is recorded as at least 50%. Besides, in data set [2] (400/30 regimen, C57Bl-N29 with FTY720 0.3 mg/kg ip daily days 8-18), the median survival entry is on record as “not reached”. Besides, in [2] (400/30 regimen, activated wild type C57Bl cells with FTY720 0.3 mg/kg ip daily days 8-18), the “GVHD mortality (mice died)” value is given as 2/6. Also, in data set [2] (temporary FTY720 treatment added to allogeneic cells (FIG. 18)), the “tumor bearing mice survived long term” value was 50-80%. In data set [3] (4 days after transfer of allogeneic T-bodies, CD3 staining of blood), the “lymphocyte egression to the blood” value is recorded as “inhibited lymphocyte egression to the blood”. In data set [3] (day 7 after transfer, anti-H2Kb staining, with vs without FTY720), the “allo-T-bodies in the spleen” value is “higher numbers of allo-T-bodies detected in the spleen on day 7”.
On to `NC(CO)(CCc1ccc(Sc2cccc(Oc3ccccc3)c2)cc1Cl)COP(=O)(O)O` (stereo not shown) [KRP-203 phosphate, 2-ammonio-4-(2-chloro-4-(3-phenoxyphenylthio)phenyl)-2-(hydroxymethyl)butyl hydrogen phosphate], for which the EC50 on S1P3 [4] is over 1 µM. Further, the ED50 result on S1P1 is “in the nM range”. Besides, the “reduction of incidence of bradycardia compared to FTY720” value in data set [5] is 10 fold.
